Results published in patent publication US11590128B2, “Combination therapy of a type II anti-CD20 antibody with a selective BCL-2 inhibitor” (GENENTECH, INC., priority 2012, dated 2023).

Tests used:
[1] = test system: human Z138 mantle cell lymphoma cells; test: Tumor growth inhibition study in vivo, Z138 mantle cell lymphoma xenograft, Example 3; parameters: species or system SCID beige mice; conditions: day 35 after tumor cell inoculation; antibodies 1 mg/kg i.p. once weekly x3; GDC-0199 100 mg/kg p.o. once daily for 17 days
Description: Animals. […] Continuous health monitoring was carried out on regular basis.
Monitoring. Animals were controlled daily for clinical symptoms and detection of adverse effects.
Treatment of animals. […] The corresponding vehicle was administered on the same days.

DLBCL SU-DHL-4 xenograft = DLBCL SU-DHL-4 xenograft model, combination followed by single-agent GDC-0199, Example 4; format: in vivo, mice; conditions: GDC-0199 orally for 21 days, GA101 1 mg/kg QW for 3 weeks; alone or in combination
Description: At day 22 tumor bearing mice in the combination cohort continued to be dosed with GDC-0199 alone at 100 mg/kg for an additional 24 days.
As explained above, a cohort of tumor bearing mice was also dosed with GDC-0199 alone for an additional 24 days after combination treatment ended on day 21 (QD×45). Under the x-axis, treatment periods are denoted by solid black lines ( ? ) for the combination cohorts while the continued single agent GDC-0199 treatment is denoted by dashed black line ( ? ).

[2] = test system: SU.DHL-4 diffuse large B-cell lymphoma xenograft; test: NHL xenograft model of aggressive lymphoma (DLBCL SU.DHL-4), Example 1; format: in vivo, mice
Description: The study used a non-Hodgkin's lymphoma (NHL) xenograft model of aggressive lymphoma, the diffuse large B-cell lymphoma (DLBCL) derived cell line SU.DHL-4.
In FIG. 1, the dose of GDC-0199 is expressed as free base equivalents in mg/kg of body weight. Results are expressed as the fitted tumor volume as determined by linear mixed effects modeling for each treatment group vs. time in days, where Day 0 is the first day of treatment.

Compound	tumor growth inhibition compared to the control group [1] [%]	tumor growth inhibition (TGI) (DLBCL SU-DHL-4 xenograft) [%]	tumor growth inhibition (TGI) ([2]; after three weeks of therapy (treatment ended day 21)) [%]	tumor growth inhibition (TGI) ([2]; at day 31 (10 days after dosing ended)) [%]	antitumor outcome (in words) ([2]; obinutuzumab 1 mg/kg IV once a week for 3 weeks, GDC-0199 100 mg/kg QD for 21 days, alone or combined)
rituximab: type I anti-CD20 antibody	32				
CC1(C)CCC(CN2CCN(c3ccc(C(=O)NS(=O)(=O)c4ccc(NCC5CCOCC5)c([N+](=O)[O-])c4)c(Oc4cnc5[nH]ccc5c4)c3)CC2)=C(c2ccc(Cl)cc2)C1 [GDC-0199, 2-(1H-pyrrolo[2,3-b]pyridin-5-yloxy)-4-(4-((2-(4-chlorophenyl)-4,4-dimethylcyclohex-1-enyl)methyl)piperazin-1-yl)-N-(3-nitro-4-(((tetrahydro-2H-pyran-4-yl)methyl)amino)phenylsulfonyl)benzamide]	59	24	80	25	stasis followed by tumor growth delay
